# Reference: the supplement of paper PMC11208160
# Experiment: recombinant UMI read abundance after kanamycin selection (control-corrected) (log10(CPM+1)); higher = more efficient recombination; extreme values may be limits of the assay; sequences stand for … in AGTGCAGAGAAAATCGGCCAGTTTTCTCTGCCTGCAGTCCGCATGCCGTGGGACCCCTTGGGTTCTAACCTGTTGCCTAGATTTATGCAGCGGACTGCCTTTCTCCCAAAGTGATAAACCGG…AGGTTGGTTTCACT; site = the 11-nt donor
# Method in brief: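 Two replicates each of selected and unselected plating were used in this pooled Escherichia coli screen of donor and donor-binding-loop pairs for the IS621 bridge recombinase. Selection was with IPTG (0.07 mM) and kanamycin. Counts of recombinant UMIs, amplified across the donor–target junction, were converted to CPM, averaged, scaled by control-derived factors and reported as log10(CPM+1).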
# 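Further: IS621 bridge recombinase in Escherichia coli cells against a fixed T5 target plasmid.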
row,Sequence,recombinant UMI read abundance (log10)
1,CTAGGTACATGGACCGGTTTTCCCGGTAATCCGTATTTGAC (site ATAGGTACTGT),0
2,CTAGGTACATGGACCGGTTTTCCCGGTAATCCGTATTTGAC (site CTAGGTACTGT),2.1
3,CTAGGTACATGGACCGGTTTTCCCGGTAATCCGTATTTGAC (site GTAGGTACTGT),0
4,CTAGGTACATGGACCGGTTTTCCCGGTAATCCGTATTTGAC (site TTAGGTACTGT),0
5,CTAGTAACATGGACCGGTTTTCCCGGTAATCCGTATTTGAG (site CTAGTAACTCT),2.89
6,CTAGTAACATGGACCGGTTTTCCCGGTAATCCGTATTTGAG (site CTAGTATCTGT),0
7,CTAGTAACATGGACCGGTTTTCCCGGTAATCCGTATTTGTC (site CTAGTAACTGA),2.78
8,CTAGTAACATGGACCGGTTTTCCCGGTAATCCGTATTTGTC (site CTAGTATCTGT),0
9,CTAGTACCATGGACCGGTTTTCCCGGTAATCCGTATTTGAC (site CTAGTAACTGT),0
10,CTAGTACCATGGACCGGTTTTCCCGGTAATCCGTATTTGAC (site CTAGTACCTGT),0
11,CTAGTACCATGGACCGGTTTTCCCGGTAATCCGTATTTGAC (site CTAGTAGCTGT),0.415
12,CTAGTACCATGGACCGGTTTTCCCGGTAATCCGTATTTGAC (site CTAGTATCTGT),2.88
13,CTAGTATCATGGACCGGTTTTCCCGGTAATCCGTATTTGAA (site CTAGTATCTAT),2.59
14,CTAGTATCATGGACCGGTTTTCCCGGTAATCCGTATTTGAA (site CTAGTATCTCT),2.4
15,CTAGTATCATGGACCGGTTTTCCCGGTAATCCGTATTTGAA (site CTAGTATCTGT),1.91
16,CTAGTATCATGGACCGGTTTTCCCGGTAATCCGTATTTGAA (site CTAGTATCTTT),2.92
17,CTAGTATCATGGACCGGTTTTCCCGGTAATCCGTATTTGAG (site CTAGTATCTAT),2.35
18,CTAGTATCATGGACCGGTTTTCCCGGTAATCCGTATTTGAG (site CTAGTATCTCT),2.61
19,CTAGTATCATGGACCGGTTTTCCCGGTAATCCGTATTTGAG (site CTAGTATCTGT),1.68

row,Sequence,recombinant UMI read abundance (log10)
1,CTAGTATCATGGACCGGTTTTCCCGGTAATCCGTATTTGAG (site CTAGTATCTTT),2.29
2,CTAGTATCATGGACCGGTTTTCCCGGTAATCCGTATTTGTG (site CTAGTATCTCA),2.97
3,CTAGTATCATGGACCGGTTTTCCCGGTAATCCGTATTTGTG (site CTAGTATCTGT),0
4,CTAGTCACATGGACCGGTTTTCCCGGTAATCCGTATTTGGG (site CAAGTCACTCC),0.00773
5,CTAGTCACATGGACCGGTTTTCCCGGTAATCCGTATTTGGG (site CCAGTCACTCC),0.0093
6,CTAGTCACATGGACCGGTTTTCCCGGTAATCCGTATTTGGG (site CGAGTCACTCC),0.00732
7,CTAGTCACATGGACCGGTTTTCCCGGTAATCCGTATTTGGG (site CTAGTCACTCC),0.00791
8,CTAGTGCCATGGACCGGTTTTCCCGGTAATCCGTATTTGAC (site CTAGTATCTGT),0.948
9,CTAGTGCCATGGACCGGTTTTCCCGGTAATCCGTATTTGAC (site CTAGTGCCTGT),0.95
10,CTAGTTTCATGGACCGGTTTTCCCGGTAATCCGTATTTGAC (site CTAGTATCTGT),2.19
11,CTAGTTTCATGGACCGGTTTTCCCGGTAATCCGTATTTGAC (site CTAGTCTCTGT),1.74
12,CTAGTTTCATGGACCGGTTTTCCCGGTAATCCGTATTTGAC (site CTAGTGTCTGT),0
13,CTAGTTTCATGGACCGGTTTTCCCGGTAATCCGTATTTGAC (site CTAGTTTCTGT),2.05
14,CTATAACCATGGACCGGTTTTCCCGGTAATCCGTATTTGGA (site CTATAACCTTC),0.0031
15,CTATCATCATGGACCGGTTTTCCCGGTAATCCGTATTTGCT (site CAATCATCTAG),0.957
16,CTATCATCATGGACCGGTTTTCCCGGTAATCCGTATTTGCT (site CCATCATCTAG),0.932
17,CTATCATCATGGACCGGTTTTCCCGGTAATCCGTATTTGCT (site CGATCATCTAG),0
18,CTATCATCATGGACCGGTTTTCCCGGTAATCCGTATTTGCT (site CTATCATCTAG),2.06
19,CTATCGACATGGACCGGTTTTCCCGGTAATCCGTATTTGTT (site CAATCGACTAA),0.0124

row,Sequence,recombinant UMI read abundance (log10)
1,CTATCGACATGGACCGGTTTTCCCGGTAATCCGTATTTGTT (site CCATCGACTAA),0.0135
2,CTATCGACATGGACCGGTTTTCCCGGTAATCCGTATTTGTT (site CGATCGACTAA),0.0084
3,CTATCGACATGGACCGGTTTTCCCGGTAATCCGTATTTGTT (site CTATCGACTAA),1.1
4,CTATGACCATGGACCGGTTTTCCCGGTAATCCGTATTTGAG (site CTATGACCTCT),0.00436
5,CTATGATCATGGACCGGTTTTCCCGGTAATCCGTATTTGAC (site CTAGTATCTGT),0
6,CTATGATCATGGACCGGTTTTCCCGGTAATCCGTATTTGAC (site CTATGATCTGT),2.73
7,CTATGCACATGGACCGGTTTTCCCGGTAATCCGTATTTGTA (site ATATGCACTTA),0.00544
8,CTATGCACATGGACCGGTTTTCCCGGTAATCCGTATTTGTA (site CTATGCACTTA),1.82
9,CTATGCACATGGACCGGTTTTCCCGGTAATCCGTATTTGTA (site GTATGCACTTA),0.00869
10,CTATGCACATGGACCGGTTTTCCCGGTAATCCGTATTTGTA (site TTATGCACTTA),0.013
11,CTATGTTCATGGACCGGTTTTCCCGGTAATCCGTATTTGTC (site CTATGTTCTGA),2.29
12,CTATTATCATGGACCGGTTTTCCCGGTAATCCGTATTTGAA (site CTATTATCTTT),1.79
13,CTATTATCATGGACCGGTTTTCCCGGTAATCCGTATTTGGC (site CTAGTATCTGT),0
14,CTATTATCATGGACCGGTTTTCCCGGTAATCCGTATTTGGC (site CTATTATCTGC),2.56
15,CTATTTCCATGGACCGGTTTTCCCGGTAATCCGTATTTGCG (site CTATTTCCTCG),0.264
16,CTCAAATCATGGACCGGTTTTCCCGGTAATCCGTATTTGAA (site CTCAAATCTTT),0.789
17,CTCAATCCATGGACCGGTTTTCCCGGTAATCCGTATTTGTT (site CGGAATCCTAA),0
18,CTCAATCCATGGACCGGTTTTCCCGGTAATCCGTATTTGTT (site CTCAATCCTAA),1.41
19,CTCAATGCATGGACCGGTTTTCCCGGTAATCCGTATTTGGG (site CTCAATGCTCC),0
